This note sets out measurements from patent US9617258B2, “Pyrrolo[2,3-d]pyrimidinyl, pyrrolo[2,3-b]pyrazinyl and pyrrolo[2,3-d]pyridinyl acrylamides” (Pfizer Inc., priority 2013, dated 2017).

The nature of this data set: Stability of JAK3 covalent inhibitors in human whole blood.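 Note: parent compound remaining over incubation time quantified by LC-MS/MS as peak area ratio against an internal standard, using pooled K2-EDTA blood.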 Format: in vitro ADME. The conditions noted are these: both sexes, whole blood, 37° C., read-out: Human blood stability t1/2.
Take `C=CC(=O)N1C[C@H](Nc2ccnc3[nH]cc(C#N)c23)CC[C@@H]1C` [Example 165, 4-{[(3R,6S)-1-Acryloyl-6-methylpiperidin-3-yl]amino}-1H-pyrrolo[2,3-b]pyridine-3-carbonitrile]: the half-life at 1 μM is more than 5.82 h.
Take `C=CC(=O)N1CCC(Nc2cnc3[nH]cc(C(=O)NC(C)C)c3n2)CC1` [Example 168, 2-[(1-acryloylpiperidin-4-yl)amino]-N-(propan-2-yl)-5H-pyrrolo[2,3-b]pyrazine-7-carboxamide]: the half-life at 1 μM is more than 5.83 h.
`C=CC(=O)N1CC[C@H](Nc2cnc3[nH]cc(C(=O)NC(C)C)c3n2)C1` [Example 171, 2-{[(3S)-1-acryloylpyrrolidin-3-yl]amino}-N-(propan-2-yl)-5H -pyrrolo[2,3-b]pyrazine-7-carboxamide]: the half-life at 1 μM is more than 6 h.
In the case of `C=CC(=O)N1CCN(c2cnc3[nH]cc(C(=O)NC(C)C)c3n2)CC1` [Example 174, 2-(4-acryloylpiperazin-1-yl)-N-(propan-2-yl)-5H-pyrrolo[2,3-b]pyrazine-7-carboxamide], the half-life at 1 μM is 4.16 h.
Take `C=CC(=O)N1CCC(Nc2cnc3[nH]ccc3n2)CC1` [Example 176, 1-[4-(5H-pyrrolo[2,3-b]pyrazin-2-ylamino)piperidin-1-yl]prop-2-en-1-one]: the half-life at 1 μM is more than 6 h.
On to `C=CC(=O)N1CCC[C@H]1CNc1cnc2[nH]cc(C(=O)NC(C)C)c2n1` [Example 177, 2-({[(2S)-1-acryloylpyrrolidin-2-yl]methyl}amino)-N-(propan-2-yl)-5H-pyrrolo[2,3-b]pyrazine-7-carboxamide], for which the half-life at 1 μM is more than 5.35 h.
Regarding `C=CC(=O)N1CC2CCN(c3cnc4[nH]cc(C(=O)NC(C)C)c4n3)C2C1` (stereo not shown) [Example 178, 2-(5-acryloylhexahydropyrrolo[3,4-b]pyrrol-1(2H)-yl)-N-(propan-2-yl)-5H-pyrrolo[2,3-b]pyrazine-7-carboxamide], the half-life at 1 μM amounted to 2.38 h.
With `C=CC(=O)N[C@H]1C[C@@H](Nc2cnc3[nH]cc(C(=O)NC(C)C)c3n2)C1` [Example 184, 2-{[cis-3-(acryloylamino)cyclobutyl]amino}-N-(propan-2-yl)-5H-pyrrolo[2,3-b]pyrazine-7-carboxamide], the half-life at 1 μM is more than 6 h.
Turning to `C=CC(=O)N(C)C1CN(c2cnc3[nH]cc(C(=O)NC(C)C)c3n2)C1` [Example 187, 2-{3-[acryloyl(methyl)amino]azetidin-1-yl}-N-(propan-2-yl)-5H-pyrrolo[2,3-b]pyrazine-7-carboxamide], the half-life at 1 μM was more than 6 h.
As for `C=CC(=O)N1CC(Nc2cnc3[nH]cc(C(=O)NC(C)C)c3n2)C1` [Example 188, 2-[(1-acryloylazetidin-3-yl)amino]-N-(propan-2-yl)-5H-pyrrolo[2,3-b]pyrazine-7-carboxamide], the half-life at 1 μM stood at 1.6 h.
As for `C=CC(=O)N1C[C@@H]2C(Nc3cnc4[nH]cc(C(=O)NC(C)C)c4n3)[C@@H]2C1` (stereo partly drawn) [Example 189, 2-{[(1R,5S,6s)-3-acryloyl-3-azabicyclo[3.1.0]hex-6-yl]amino}-N-(propan-2-yl)-5H-pyrrolo[2,3-b]pyrazine-7-carboxamide], the figure is more than 6 h; as for `C=CC(=O)N1CC[C@@H](CNc2cnc3[nH]cc(C(=O)NC(C)C)c3n2)C1` [Example 191, 2-({[(3S)-1-acryloylpyrrolidin-3-yl]methyl}amino)-(N-propan-2-yl)-5H-pyrrolo[2,3-b]pyrazine-7-carboxamide], more than 6 h; as for `C=CC(=O)N1CC[C@@H](Nc2cnc3[nH]cc(C(=O)NC(C)C)c3n2)[C@H](O)C1` [Example 196, 2-{[(3R,4R)-1-acryloyl-3-hydroxypiperidin-4-yl]amino}-N-(propan-2-yl)-5H-pyrrolo[2,3-b]pyrazine-7-carboxamide], more than 6 h.
On to `C=CC(=O)N[C@H]1C[C@H](Nc2cnc3[nH]cc(C(=O)NC(C)C)c3n2)C1` [Example 198, 2-{[trans-3-(acryloylamino)cyclobutyl]amino}-N-(propan-2-yl)-5H-pyrrolo[2,3-b]pyrazine-7-carboxamide], for which the half-life at 1 μM is more than 6 h.
On to `C=CC(=O)N1CCC(Nc2cnc3[nH]cc(-c4ccc(C)nc4)c3n2)CC1` [Example 199, 1-(4-{[7-(6-methylpyridin-3-yl)-5H-pyrrolo[2,3-b]pyrazin-2-yl]amino}piperidin-1-yl)prop-2-en-1-one], for which the half-life at 1 μM was more than 6 h.
For `C=CC(=O)N1CCC(Nc2cnc3[nH]cc(-c4ccnc(C)c4)c3n2)CC1` [Example 201, 1-(4-{[7-(2-methylpyridin-4-yl)-5H-pyrrolo[2,3-b]pyrazin-2-yl]amino}piperidin-1-yl)prop-2-en-1-one], the half-life at 1 μM was more than 6 h.
In the case of `C=CC(=O)N1CCC(Nc2cnc3[nH]cc(-c4ccc(F)nc4)c3n2)CC1` [Example 207, 1-(4-{[7-(6-fluoropyridin-3-yl)-5H-pyrrolo[2,3-b]pyrazin-2-yl]amino}piperidin-1-yl)prop-2-en-1-one], the half-life at 1 μM was more than 6 h.
On to `C=CC(=O)N1CCC(Nc2cnc3[nH]cc(-c4cnc(OC)nc4)c3n2)CC1` [Example 210, 1-(4-{[7-(2-methoxypyrimidin-5-yl)-5H-pyrrolo[2,3-b]pyrazin-2-yl]amino}piperidin-1-yl)prop-2-en-1-one], for which the half-life at 1 μM is more than 6 h.
As for `C=CC(=O)N1CCC(Oc2cnc3[nH]cc(-c4cnn(C)c4)c3n2)CC1` [Example 218, 1-(4-{[7-(1-methyl-1H-pyrazol-4-yl)-5H-pyrrolo[2,3-b]pyrazin-2-yl]oxy}piperidin-1-yl)prop-2-en-1-one], the figure is more than 6 h; as for `C=CC(=O)N1CCC(Oc2cnc3[nH]cc(-c4ccnc(C)c4)c3n2)CC1` [Example 220, 1-(4-{[7-(2-methylpyridin-4-yl)-5H-pyrrolo[2,3-b]pyrazin-2-yl]oxy}piperidin-1-yl)prop-2-en-1-one], more than 6 h.
For `C=CC(=O)N1CCC(Nc2cnc3[nH]cc(C(=O)NC4CCCC4(F)F)c3n2)CC1` (stereo not shown) [Example 234, 2-[(1-acryloylpiperidin-4-yl)amino]-N-(2,2-difluorocyclopentyl)-5H-pyrrolo[2,3-b]pyrazine-7-carboxamide], the half-life at 1 μM worked out at 4.93 h.
Take `C=CC(=O)N1CCC(Nc2cnc3[nH]cc(C(=O)N[C@@H]4CCC[C@H]4F)c3n2)CC1` [Example 237, 2-[(1-acryloylpiperidin-4-yl)amino]-N-[(1R,2R)-2-fluorocyclopentyl]-5H-pyrrolo[2,3-b]pyrazine-7-carboxamide]: the half-life at 1 μM was found to be 4.05 h.
Turning to `C=CC(=O)N1CCC(Nc2cnc3[nH]cc(C(=O)NCC4CC(F)(F)C4)c3n2)CC1` [Example 238, 2-[(1-acryloylpiperidin-4-yl)amino]-N-[(3,3-difluorocyclobutyl)methyl]-5H-pyrrolo[2,3-b]pyrazine-7-carboxamide], the half-life at 1 μM was found to be 4.33 h.
On to `C=CC(=O)N1CCC(Nc2cnc3[nH]cc(C(=O)NCCCC(F)(F)F)c3n2)CC1` [Example 240, 2-[(1-acryloylpiperidin-4-yl)amino]-N-(4,4,4-trifluorobutyl)-5H-pyrrolo[2,3-b]pyrazine-7-carboxamide], for which the half-life at 1 μM is 3.92 h.
Take `C=CC(=O)N1CCC(Nc2cnc3[nH]cc(C(=O)NC[C@H](C)CC(F)(F)F)c3n2)CC1` [Example 241, 2-[(1-acryloylpiperidin-4-yl)amino]-N-[(2R)-4,4,4-trifluoro-2-methylbutyl]-5H-pyrrolo[2,3-b]pyrazine-7-carboxamide]: the half-life at 1 μM was more than 5.17 h.
